Test results published in patent US20150111933A1, “Deuterated Thiazolidinone Analogues as Agonists for Follicle Stimulating Hormone Receptor” (Merck Patent GmbH, priority 2012, published 2015).

Tests used:
[1] = target: T1, FSHR (Homo sapiens, UniProt P23945); test: EC50 of cyclic AMP production in CHO FSHR cells + EC20 FSH (HTRF); type: cell-based; conditions: Cho-FSHR-LUC-1-1-43 cells; for Emax: 1 h, read-out: EC50 of cAMP production (% effect); for EC50: + EC20 FSH (0.265 pM), 200 μM IBMX, 1 h at 37° C., read-out: EC50 of cAMP production
T1 construct: expressed in transfected cells; host or cells: CHO (Cho-FSHR-LUC-1-1-43)
T1 sequence (P23945 18-695): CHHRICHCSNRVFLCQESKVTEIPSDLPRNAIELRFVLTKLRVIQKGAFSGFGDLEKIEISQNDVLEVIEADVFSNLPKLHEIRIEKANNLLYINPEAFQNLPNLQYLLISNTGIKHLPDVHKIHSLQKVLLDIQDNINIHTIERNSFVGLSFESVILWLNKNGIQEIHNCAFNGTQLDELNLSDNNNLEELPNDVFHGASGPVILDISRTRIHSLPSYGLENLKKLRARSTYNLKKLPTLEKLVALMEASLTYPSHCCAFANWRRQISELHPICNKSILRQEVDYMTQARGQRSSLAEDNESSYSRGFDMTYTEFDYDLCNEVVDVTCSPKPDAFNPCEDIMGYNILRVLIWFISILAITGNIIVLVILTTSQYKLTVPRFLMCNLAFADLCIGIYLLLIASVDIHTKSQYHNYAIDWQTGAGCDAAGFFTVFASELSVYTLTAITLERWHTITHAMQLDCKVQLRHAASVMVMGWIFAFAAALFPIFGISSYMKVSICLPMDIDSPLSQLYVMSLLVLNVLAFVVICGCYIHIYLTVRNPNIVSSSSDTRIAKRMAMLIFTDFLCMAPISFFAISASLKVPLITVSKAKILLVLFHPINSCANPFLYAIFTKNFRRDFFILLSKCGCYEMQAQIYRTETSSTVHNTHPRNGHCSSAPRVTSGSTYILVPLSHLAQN
Description: EC50 of Cyclic AMP Production in CHO FSHR Cells+EC20 FSH
2500 Cho-FSHR-LUC-1-1-43 cells were plated per well in 5 μL of phenol red free DMEM/F12+1% FBS. Cells were plated in 384 well, solid white low volume plates (Greiner 784075) by Multidrop. Cells were assayed by adding […] of 2×EC20 FSH/IBMX in DMEM/F12+0.1% BSA) by Multidrop to 2 μL of test compound stamped in 384 well plates (compounds are diluted 1:50). The final FSH concentration was 0.265 pM, and the final IBMX concentration was 200 μM. The compound plate map was as follows: Column 1: 2 μL of DMSO; Column 2: 2 μL of DMSO; Columns 3-12 and 13-24: 2 μL of test compound, diluted 1:4 in 100% DMSO, or 2 μL of FSH, diluted 1:4 in DMEM/F12+0.1% BSA. The starting concentration for FSH was 50 nM (final concentration was 0.5 nM). Furthermore, Column 23 contained 2 μL of EC100 FSH reference (100×) (diluted in DMEM/F12+0.1% BSA) at a final concentration of 0.5 nM, and Column 24 contained 2 μL of 1 mM AS707664/2 reference compound 2. 5 μL of compound+EC20 FSH mixture were transferred to cell plates (1:2 dilution into 5 μL of cell media) The plates were incubated at 37° C. for 1 h. 10 μL of mixed HTRF (CisBio #62AM4PEC) reagents were added per well and incubated at room temperature for 1 h. The plates were read on Envision using the cAMP HTRF—low volume 384 well protocol. The readout was the calculated fluorescence ratio (665 nm/620 nm).

[2] = Intrinsic clearance (Clint) in human liver microsomes; type: in vitro ADME; conditions: 0.5 mg/mL protein, NADPH, up to 30 min, first value of human/rat; for microsomal CLint at 0.8 μM: human, liver microsomes, pH 7.4, human liver microsomes; for Clint (human): human liver microsomes
Description: (§1) Intrinsic Clearance (Clint) Assay Protocol:
(§2) A Tecan Genesis workstation (RSP 150/8) was used for to perform the microsomal incubations. Analysis was carried out using a Waters ACQUITY UPLC system coupled to an ABSciex API3000 mass spectrometer. Data analysis was performed using Assay Explorer (Symyx).
(§3) 0.1 M potassium phosphate buffer pH 7.4 containing 1 mM MgCl2 15 mM NADPH in phosphate buffer 4.4 mg protein/mL liver microsomes in phosphate buffer acetonitrile 20% DMSO in water
(§4) Each experiment consists of 12 test and 2 reference compounds. The reference compounds are incubated as a cocktail. Dilution of test compounds was done in 2 steps from a 10 mM DMSO stock solution. First 4 μL stock solution was added to 196 μL of 20% DMSO in potassium phosphate buffer pH 7.4. In a second step 10 μL of the first dilution were added to […] potassium phosphate buffer and 100 μL internal standard solution to a final concentration of 0.8 μM. 100 μL of the final compound dilution were aliquoted into a 96 deep well plate. 12.5 μL liver microsomes were added to each well (0.5 mg/mL final protein concentration) and the samples preincubated for 5 min at 37° C. and 800 rpm agitation.
(§5) After the preincubation, 250 μL cold acetonitrile were added to the 0 min samples to prevent a reaction. Following this, 12.5 μL NADPH solution were added to all wells to start the incubation, with the exception of the 0 min and 30 min controls without cofactor, where the NADPH was substituted for phosphate buffer.
(§6) The incubations were stopped after 5, 10, 20 and 30 min by adding 250 μL cold acetonitrile to the individual wells.
(§7) The quenched samples were then centrifuged at 4000 g for 1 h at 4° C. 100 μL of the supernatant were transferred into 96 well plates for analysis.
(§8) The metabolic stability of each compound was determined by measurement of the change in LC-MS/MS peak area over time. Assay Explorer software was used to automatically calculate the slope k of the decline. The intrinsic clearance (Clint) of each compound was then calculated according to the formula:
(§9) Clint (μL/min/mg protein)=k1000/protein concentration.

[3] = Intrinsic clearance (Clint) in rat liver microsomes; type: in vitro ADME; conditions: 0.5 mg/mL protein, NADPH, up to 30 min, second value of human/rat; for microsomal CLint at 0.8 μM: rat, liver microsomes, pH 7.4, rat liver microsomes
Description: as §1, §2, §3, §4, §5, §6, §7, §8, §9

[4] = + EC20 FSH, % effect in brackets

Emax [1, 4] [%]	EC50 [1] [nM]	microsomal CLint at 0.8 μM [2] [µL/min/mg]	microsomal CLint at 0.8 μM [3] [µL/min/mg]	Clint (human) [2] [μL/min/mg protein]	EC50 of cAMP production (% effect) [1, 4]	Clint (rat) ([3]; rat liver microsomes) [μL/min/mg protein]	Molecule
96	0.7	208	56				[2H]C([2H])([2H])Oc1ccc(CCNC(=O)C[C@H]2S[C@@H](c3ccc(C#Cc4ccccc4)cc3)N(c3cccc(C(N)=O)c3)C2=O)cc1OCC (single isomer, unassigned) [Compound 6]
103	25	35	18				[2H]c1c([2H])c([2H])c(C#Cc2c([2H])c([2H])c([C@H]3N(c4cccc(C(N)=O)c4)C(=O)[C@@H](CC(=O)NC([2H])([2H])C([2H])([2H])c4ccc(OC([2H])([2H])[2H])c(OCC)c4)[S@@+]3[O-])c([2H])c2[2H])c([2H])c1[2H] (single isomer, unassigned) [Compound 20]
	0.5			184	(99) %	44	3-((2S,5R)-4-oxo-5-(2-oxo-2-((2-(3,4-dimethoxyphenyl-d6l)ethyl)amino)ethyl)-2-(4-(phenylethynyl)phenyl)thiazolidin-3-yl)benzamide [Compound 7]

The next lines start with the molecule.

Molecule	Emax [1, 4] [%]	EC50 [1] [nM]	microsomal CLint at 0.8 μM [2] [µL/min/mg]	microsomal CLint at 0.8 μM [3] [µL/min/mg]	Clint (human) [2] [μL/min/mg protein]	EC50 of cAMP production (% effect) [1, 4]	Clint (rat) ([3]; rat liver microsomes) [μL/min/mg protein]
[2H]C([2H])(NC(=O)C[C@H]1S[C@@H](c2ccc(C#Cc3ccccc3)cc2)N(c2cccc(C(N)=O)c2)C1=O)C([2H])([2H])c1ccc(OC)c(OCC)c1 (single isomer, unassigned) [Compound 4]	99	0.7		51	191		
[2H]C([2H])([2H])Oc1ccc(C([2H])([2H])C([2H])([2H])NC(=O)C[C@H]2S[C@@H](c3ccc(C#Cc4ccccc4)cc3)N(c3cccc(C(N)=O)c3)C2=O)cc1OCC (single isomer, unassigned) [Compound 5]	99	0.8	168	45			
[2H]C([2H])([2H])Oc1ccc(C([2H])([2H])C([2H])([2H])NC(=O)C[C@H]2S[C@@H](c3ccc(C#Cc4ccccc4)cc3)N(c3cccc(C(N)=O)c3)C2=O)cc1OC [Compound 3, 3-((2S,5R)-4-oxo-5-(2-oxo-2-((1,1,2,2-d4-2-(3-methoxy-4-(methoxy-d3)phenyl)ethyl)amino)ethyl)-2-(4-(phenylethynyl)phenyl)thiazolidin-3-yl)benzamide]	97	1.7	111	29			
